Key:
Test in all cases: AUC of viability dose-response curve (% viability x log10 dose units); higher = less sensitive
Settings in all cases: 48 h
[1] = test system: NOMO1
How it was run: (§1)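 Viability of medium-adapted leukemia cells was measured by CellTiter-Glo One luminescence after 48 h at 37°C with library compounds in DMSO. Doses were 11 threefold steps from 47 μM to 0.79 nM, in 1536-well plates at 500 or 1000 cells/well. Signals were normalised per plate to DMSO and cell-free wells and fitted with a four-parameter log-logistic model on log10 dose. Area under the curve was integrated by trapezoidal rule, with curves exceeding full viability scaled and failed quality-control curves removed.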

[2] = test system: P12-Ichikawa
How it was run: as §1

[3] = test system: SEM cells
How it was run: as §1

[4] = RPMI 5 mM glucose + 10% dialyzed FBS

Row | SMILES | AUC of viability dose-response curve ([1]; HPLM + 10% dialyzed FBS) | AUC of viability dose-response curve ([1]; RPMI 5 mM glucose + 10% FBS) | AUC of viability dose-response curve [1, 4] | AUC of viability dose-response curve ([2]; HPLM + 10% dialyzed FBS) | AUC of viability dose-response curve ([2]; RPMI 5 mM glucose + 10% FBS) | AUC of viability dose-response curve [2, 4] | AUC of viability dose-response curve ([3]; HPLM + 10% dialyzed FBS) | AUC of viability dose-response curve ([3]; RPMI 5 mM glucose + 10% FBS) | AUC of viability dose-response curve [3, 4]
1 | COc1ccc(F)c(F)c1C(=O)c1cnc(NC2CCN([S+](C)(=O)[O-])CC2)nc1N | 367 | 380 | 380 | 401 | 358 | 360 | 351 | 344 | 381
2 | Cc1ccc([C@@H]2O[C@H](CO)[C@@H](O)[C@H](O)[C@H]2O)cc1Cc1ccc(-c2ccc(F)cc2)s1 | 467 | 468 | 472 | 465 | 467 | 465 | 475 | 467 | 468
3 | CN(C)c1nc(Cc2ccc(NC(=O)c3ccc(C(F)(F)F)cc3)cc2)nc(N(C)C)c1CC(=O)O | 452 | 432 | 451 | 471 | 465 | 461 | 473 | 445 | 470
4 | COCCn1c2c([n+](Cc3cnccn3)c1C)C(=O)c1ccccc1C2=O | 194 | 232 | 223 | 251 | 247 | 244 | 161 | 209 | 189
5 | CNC[C@H](O)[C@@H](O)[C@H](O)[C@H](O)CO | 432 | 473 | 470 | 471 | 471 | 474 | – | – | –
6 | CCc1ccc(OCc2ccccc2C(=O)Nc2ccc3nc(C)cc(N)c3c2)cc1 | 368 | 409 | 407 | 409 | 423 | 426 | 377 | 416 | 417
7 | CCn1nnc2c(N3CCOCC3)nc(-c3ccc(NC(=O)Nc4ccc(C(=O)N5CCN(C)CC5)cc4)cc3)nc21 | 309 | 395 | 341 | 391 | 353 | 352 | 330 | 296 | 337
8 | CO[C@@H](C(=O)N1Cc2[nH]nc(NC(=O)c3ccc(N4CCN(C)CC4)cc3)c2C1)c1ccccc1 | 352 | 319 | 319 | 268 | 260 | 300 | 277 | 247 | 248
9 | CC(=O)OC[C@@H]1O[C@H]([C@H](OC(C)=O)[C@@H]1OC(C)=O)N2\C=C/C(=O)NC2=O | 429 | 440 | 443 | 461 | 444 | 457 | 448 | 462 | 456
10 | CCCCc1ccc2[nH]c(NC(=O)OC)nc2c1 | 304 | 273 | 293 | 252 | 261 | 289 | – | – | –
11 | OC(=O)\C1=C\N(C2CC2)C3=CC(=C(F)C=C3C1=O)N4CCNCC4 | 404 | 428 | 422 | 451 | 456 | 455 | – | – | –
12 | Clc2cccc(Cl)c2\N=C1/NCCN1 | 455 | 474 | 468 | 446 | 448 | 452 | 414 | 407 | 429
13 | Cc1cc(Nc2ncc3c(n2)N(C)C(=O)N(c2cc(NC(=O)c4cccc(C(F)(F)F)c4)ccc2C)C3)n(C)n1 | 341 | 362 | 357 | 399 | 374 | 381 | 293 | 278 | 277
14 | Cc1cc(Nc2cc(N3CCN(C)CC3)nc(/C=C/c3ccccc3)n2)n[nH]1 | 340 | 334 | 345 | 320 | 333 | 333 | 264 | 261 | 255
15 | CC(C)c1onc(-c2c(Cl)cccc2Cl)c1COc1ccc(/C=C/c2cccc(C(=O)O)c2)c(Cl)c1 | 454 | 447 | 466 | 450 | 445 | 452 | 466 | 465 | 443
16 | CC(C(C)N1CC(=O)NC(=O)C1)N1CC(=O)NC(=O)C1 (stereo not given) | 459 | 468 | 471 | 454 | 425 | 447 | 422 | 351 | 401
17 | NC(=O)c1cnccn1 | 464 | 471 | 457 | 463 | 465 | 461 | 462 | 461 | 465
18 | O=C(O)c1ccc(O)c2ncc(N3CCOCC3)cc12 | 447 | 417 | 454 | 452 | 431 | 435 | 453 | 424 | 393
19 | Nc1nc(F)nc2c1ncn2[C@@H]1O[C@H](COP(=O)(O)O)[C@@H](O)[C@@H]1O | 420 | 456 | 448 | 448 | 460 | 454 | 353 | 398 | 352
20 | N[S+](=O)([O-])c1ccc(Nc2nc(OCC3CCCCC3)c3[nH]cnc3n2)cc1 | 330 | 346 | 357 | – | – | – | 307 | 276 | 298
21 | C[C@H](NC(=O)Cc1cc(F)cc(F)c1)C(=O)N[C@H](C(=O)OC(C)(C)C)c1ccccc1 | 448 | 397 | 432 | 432 | 428 | 390 | 418 | 456 | 415
22 | CC[C@H]1OC(=O)[C@H](C)[C@@H](O[C@H]2C[C@@](C)(OC)[C@@H](O)[C@H](C)O2)[C@H](C)[C@@H](O[C@@H]2O[C@H](C)C[C@H](N(C)C)[C@H]2O)[C@](C)(OC)C[C@@H](C)C(=O)[C@H](C)[C@@H](O)[C@]1(C)O | 405 | 440 | 409 | 435 | 443 | 437 | 452 | 461 | 452
23 | CC1(C)CC\C2=C(/O1)C3=C(C=CC=C3)C(=O)C2=O | 449 | 446 | 451 | 449 | 447 | 450 | 437 | 436 | 401
24 | CNc1nc(-c2ccc3c(N)n[nH]c3c2)cc(N2C[C@@H](C(=O)NC3CCCCC3)CC[C@H]2C)n1 | 350 | 359 | 364 | 395 | 319 | 336 | – | – | –

Row | SMILES | AUC of viability dose-response curve ([1]; HPLM + 10% dialyzed FBS) | AUC of viability dose-response curve ([1]; RPMI 5 mM glucose + 10% FBS) | AUC of viability dose-response curve [1, 4] | AUC of viability dose-response curve ([2]; HPLM + 10% dialyzed FBS) | AUC of viability dose-response curve ([2]; RPMI 5 mM glucose + 10% FBS) | AUC of viability dose-response curve [2, 4] | AUC of viability dose-response curve ([3]; HPLM + 10% dialyzed FBS) | AUC of viability dose-response curve ([3]; RPMI 5 mM glucose + 10% FBS) | AUC of viability dose-response curve [3, 4]
25 | CN1C(=O)c2sccc2N(C)c2nc(Nc3ccc([S+](N)(=O)[O-])cc3)ncc21 | 379 | 390 | 378 | 343 | 349 | 355 | 345 | 348 | 348
26 | CC/C=C\C[C@H]1C(=O)CC[C@@H]1CC(=O)OC | 470 | 440 | 449 | 460 | 451 | 470 | 469 | 451 | 461
27 | CC(C)C1CCC(C(=O)N[C@H](Cc2ccccc2)C(=O)O)CC1 (stereo not given in full) | 409 | 418 | 446 | 452 | 435 | 419 | 394 | 401 | 422
28 | CC1(C)SCCN([S+](=O)([O-])c2ccc(OCC#CCO)cc2)[C@H]1C(=O)NO | 462 | 437 | 450 | 456 | 454 | 438 | 449 | 413 | 439
29 | CCCCCNC(=N)N/N=C/c1c[nH]c2ccc(OC)cc12 | 440 | 442 | 441 | 429 | 429 | 436 | 426 | 424 | 428
30 | NC1=NC(=O)N2CC12 (stereo not given) | 367 | 350 | 352 | 400 | 369 | 349 | 312 | 314 | 281
31 | Cc1ccc(C(=O)Nc2cccc(C(F)(F)F)c2)cc1Nc1nc(-c2cccnc2)nc2c1cnn2C | 392 | 396 | 409 | 421 | 393 | 416 | 362 | 411 | 407
32 | C=CC(=O)Nc1cc2c(Nc3ccc(F)c(Cl)c3)ncnc2cc1C#CC(C)(C)N1CCN(C)CC1 | 382 | 395 | 387 | 395 | 395 | 383 | 360 | 357 | 363
33 | C[S+](=O)([O-])Oc1ccc2c(NC(N)=O)c(C(=O)c3ccc(Cl)cc3Cl)oc2c1 | 449 | 460 | 462 | 455 | 463 | 466 | 433 | 442 | 464
34 | COc1ccc(CCC(=O)c2c(O)cc(O[C@@H]3O[C@H](CO)[C@@H](O)[C@H](O)[C@H]3O[C@@H]3O[C@@H](C)[C@H](O)[C@@H](O)[C@H]3O)cc2O)cc1O | 413 | 426 | 425 | 458 | 442 | 463 | 464 | 455 | 465
35 | C[C@]12CCC3c4ccc(O)cc4CCC3C1CCC2=O (stereo not given in full) | 429 | 424 | 420 | 441 | 447 | 395 | – | – | –
36 | CCOC(=O)N1CCN(/[N+]([O-])=N/Oc2cc(O/N=[N+](\[O-])N3CCN(C(=O)OCC)CC3)c([N+](=O)[O-])cc2[N+](=O)[O-])CC1 | 476 | 460 | 463 | 460 | 476 | 450 | 449 | 464 | 474
37 | COc1cc(C(=O)NC2CCN(C)CC2)ccc1Nc1ncc2c(n1)N(C1CCCC1)CCC(=O)N2C(C)C | 432 | 442 | 457 | 406 | 410 | 411 | – | – | –
38 | c1cc(-c2cnn3cc(-c4ccc(OCCN5CCCCC5)cc4)cnc23)ccn1 | 388 | 397 | 394 | 416 | 395 | 406 | – | – | –
39 | Cc1ccc2nc(NCCN)c3ncc(C)n3c2c1 | 446 | 422 | 437 | 458 | 455 | 460 | 413 | 440 | 430
40 | CN1C(=O)/C(=C(NC2=CC=C(I)C=C2F)\C3=C1\N=C/N(C[C@@H](O)CO)C3=O)F | 229 | 231 | 216 | 381 | 342 | 369 | 339 | 330 | 295
41 | CO[C@H]1/C=C/O[C@@]2(C)Oc3c(C)c(O)c4c(c3C2=O)C2=NC3(CCN(CC(C)C)CC3)NC2=C(NC(=O)/C(C)=C/C=C/[C@H](C)[C@H](O)[C@@H](C)[C@@H](O)[C@@H](C)[C@H](OC(C)=O)[C@@H]1C)C4=O | 471 | 476 | 466 | 469 | 466 | 471 | – | – | –
42 | Oc1ccc(OCc2ccccc2)cc1 | 441 | 444 | 457 | 435 | 420 | 407 | – | – | –
43 | CNC(=O)c1ccc2c(c1)NC(=O)/C2=C(\Nc1cccc(CN(C)C)c1)c1ccccc1 | 400 | 399 | 380 | – | – | – | 318 | 303 | 302
44 | C=CC(=O)Nc1cccc(Sc2nc(Nc3ccc(N4CCN(C)CC4)cc3)ncc2Cl)c1 | 454 | 455 | 456 | – | – | – | – | – | –
45 | CN(C)C/C=C/C(=O)Nc1ccc(C(=O)Nc2cccc(Nc3ncc(Cl)c(-c4c[nH]c5ccccc45)n3)c2)cc1 | 248 | 248 | 235 | 240 | 234 | 247 | – | – | –
46 | Cc1cn2cc(C(=O)N(C)CCO)cc(N[C@@H]3CCOc4cccc(C)c43)c2n1 | 462 | 422 | 443 | 465 | 470 | 469 | – | – | –
47 | Nc1ccc(C(=O)Nc2cccc(-c3nc(N4CCOCC4)c4oc5ncccc5c4n3)c2)cn1 | 410 | 442 | 403 | 450 | 428 | 430 | – | – | –

Reference: the supplement of paper PMC11451515
